Measurements as given in US20230085307A1, “PYRIDAZINONE COMPOUND AND HERBICIDE” (NISSAN CHEMICAL CORPORATION, priority 2019, published 2023).

Tests used:
[1] = test system: chickweed; assay: Test Example 4: herbicidal effect by soil treatment (Table 19, symbol P); assay type: in vivo, common chickweed (Stellaria media); conditions: amount of applied herbicide 320 g/ha
Procedure, shortened: (§1)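 Pre-emergence style soil spray: seeds under ~1.5 cm sterilized diluvial soil received a uniform coat of emulsion diluted to the predetermined herbicide amount. Greenhouse 25–30° C; readout at week three on previously defined criteria.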

[2] = test system: persian speedwell; assay: Test Example 5: herbicidal effect by foliage application, plastic box (Table 20, symbol R); assay type: in vivo, Persian speedwell (Veronica persica); conditions: foliage application, AAH 320 g/ha, evaluated three weeks after application
Procedure, shortened: (§2)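 Plants were sown into sterilized diluvial soil under about 1.5 cm cover and kept in a greenhouse at 25° C. to 30° C. Fourteen days on, foliage received an even spray of the diluted emulsion. Herbicidal or crop effect was judged three weeks afterwards.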

[3] = test system: Italian ryegrass; assay: Test Example 4: herbicidal effect by soil treatment (Table 19, symbol K); assay type: in vivo, Italian ryegrass (Lolium multiflorum); conditions: amount of applied herbicide 320 g/ha
Procedure, shortened: as §1

[4] = test system: lambsquarters; assay: Test Example 5: herbicidal effect by foliage application, plastic box (Table 20, symbol O); assay type: in vivo, lambsquarters (Chenopodium album); conditions: foliage application, AAH 320 g/ha, evaluated three weeks after application
Procedure, shortened: as §2

[5] = test system: barnyard grass; assay: Test Example 3: herbicidal effect by foliage application, Wagner pot (Table 18, symbol H); assay type: in vivo, barnyard grass (Echinochloa crus-galli); conditions: amount of applied herbicide 320 g/ha
Procedure, shortened: (§3)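 Plants were sown in alluvial soil held under 0.1–0.5 cm standing water and grown 14 days in a greenhouse at 25–30 °C. An emulsifiable formulation, water-diluted to the set dose, was then sprayed onto the foliage, and effects were scored three weeks later using previously defined criteria.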

[6] = test system: wild oat; assay: Test Example 4: herbicidal effect by soil treatment (Table 19, symbol I); assay type: in vivo, wild oat (Avena fatua); conditions: amount of applied herbicide 320 g/ha
Procedure, shortened: as §1

[7] = test system: green foxtail; assay: Test Example 4: herbicidal effect by soil treatment (Table 19, symbol G); assay type: in vivo, green foxtail (Setaria viridis); conditions: amount of applied herbicide 320 g/ha
Procedure, shortened: as §1

[8] = test system: redroot pigweed; assay: Test Example 5: herbicidal effect by foliage application, plastic box (Table 20, symbol N); assay type: in vivo, redroot pigweed (Amaranthus retroflexus); conditions: foliage application, AAH 320 g/ha, evaluated three weeks after application
Procedure, shortened: as §2

[9] = test system: southern crabgrass; assay: Test Example 4: herbicidal effect by soil treatment (Table 19, symbol F); assay type: in vivo, southern crabgrass (Digitaria ciliaris); conditions: amount of applied herbicide 320 g/ha
Procedure, shortened: as §1

[10] = test system: barnyard grass; assay: Test Example 5: herbicidal effect by foliage application, plastic box (Table 20, symbol H); assay type: in vivo, barnyard grass (Echinochloa crus-galli); conditions: foliage application, AAH 320 g/ha, evaluated three weeks after application
Procedure, shortened: as §2

[11] = test system: lambsquarters; assay: Test Example 4: herbicidal effect by soil treatment (Table 19, symbol O); assay type: in vivo, lambsquarters (Chenopodium album); conditions: amount of applied herbicide 320 g/ha
Procedure, shortened: as §1

[12] = test system: late watergrass; assay: Test Example 2: herbicidal activity, application during weed generation under submerged conditions (Table 17, symbol A); assay type: in vivo, late watergrass (Echinochloa oryzicola); conditions: AAH 320 g/ha; application during weed generation, submerged conditions
Procedure, shortened: (§4)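 Wagner pot, alluvial soil, 4 cm flood; mixed sowing of all species; greenhouse 25° C.–30° C. Emulsifiable formulation, water-diluted to predetermined dose, applied to paddy water at 1–2 leaf stage. Effect rated at 3 wk using the earlier test's scoring criteria.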

[13] = test system: blackgrass; assay: Test Example 5: herbicidal effect by foliage application, plastic box (Table 20, symbol J); assay type: in vivo, blackgrass (Alopecurus myosuroides); conditions: foliage application, AAH 320 g/ha, evaluated three weeks after application
Procedure, shortened: as §2

[14] = test system: windgrass; assay: Test Example 5: herbicidal effect by foliage application, plastic box (Table 20, symbol L); assay type: in vivo, windgrass (Apera spica-venti); conditions: foliage application, AAH 320 g/ha, evaluated three weeks after application
Procedure, shortened: as §2

[15] = test system: barnyard grass; assay: Test Example 4: herbicidal effect by soil treatment (Table 19, symbol H); assay type: in vivo, barnyard grass (Echinochloa crus-galli); conditions: amount of applied herbicide 320 g/ha
Procedure, shortened: as §1

[16] = test system: rice flat sedge; assay: Test Example 3: herbicidal effect by foliage application, Wagner pot (Table 18, symbol E); assay type: in vivo, rice flat sedge (Cyperus iria); conditions: amount of applied herbicide 320 g/ha
Procedure, shortened: as §3

[17] = test system: redroot pigweed; assay: Test Example 4: herbicidal effect by soil treatment (Table 19, symbol N); assay type: in vivo, redroot pigweed (Amaranthus retroflexus); conditions: amount of applied herbicide 320 g/ha
Procedure, shortened: as §1

[18] = test system: Italian ryegrass; assay: Test Example 5: herbicidal effect by foliage application, plastic box (Table 20, symbol K); assay type: in vivo, Italian ryegrass (Lolium multiflorum); conditions: foliage application, AAH 320 g/ha, evaluated three weeks after application
Procedure, shortened: as §2

[19] = test system: southern crabgrass; assay: Test Example 5: herbicidal effect by foliage application, plastic box (Table 20, symbol F); assay type: in vivo, southern crabgrass (Digitaria ciliaris); conditions: foliage application, AAH 320 g/ha, evaluated three weeks after application
Procedure, shortened: as §2

[20] = test system: velvetleaf; assay: Test Example 4: herbicidal effect by soil treatment (Table 19, symbol M); assay type: in vivo, velvetleaf (Abutilon theophrasti); conditions: amount of applied herbicide 320 g/ha
Procedure, shortened: as §1

[21] = test system: Japanese bulrush; assay: Test Example 2: herbicidal activity, application during weed generation under submerged conditions (Table 17, symbol B); assay type: in vivo, Japanese bulrush (Schoenoplectus juncoides); conditions: AAH 320 g/ha; application during weed generation, submerged conditions
Procedure, shortened: as §4

[22] = test system: wild oat; assay: Test Example 5: herbicidal effect by foliage application, plastic box (Table 20, symbol I); assay type: in vivo, wild oat (Avena fatua); conditions: foliage application, AAH 320 g/ha, evaluated three weeks after application
Procedure, shortened: as §2

COCC(=O)Oc1c(C)nn(C)c(=O)c1-c1c(-c2ccc(OC(F)F)cc2)sc2ccc(F)cc12 [2-283]
herbicidal effect on P: chickweed [1]: 4 (Herbicidal rate of 70% or more and less than 90%) | R: persian speedwell, herbicidal effect (criteria 0-5) [2]: 5 (Herbicidal rate of 90% or more (almost completely withered)) | herbicidal effect on K: Italian ryegrass [3]: 5 (Herbicidal rate of 90% or more (almost completely withered)) | O: lambsquarters, herbicidal effect (criteria 0-5) [4]: 5 (Herbicidal rate of 90% or more (almost completely withered)) | herbicidal effect on H: barnyard grass [5]: 5 (Herbicidal rate of 90% or more (almost completely withered)) | herbicidal effect on I: wild oat [6]: 0 (Herbicidal rate of 5% or less (almost no effect)) | herbicidal effect on G: green foxtail [7]: 5 (Herbicidal rate of 90% or more (almost completely withered)) | N: redroot pigweed, herbicidal effect (criteria 0-5) [8]: 5 (Herbicidal rate of 90% or more (almost completely withered)) | herbicidal effect on F: southern crabgrass [9]: 5 (Herbicidal rate of 90% or more (almost completely withered)) | H: barnyard grass, herbicidal effect (criteria 0-5) [10]: 5 (Herbicidal rate of 90% or more (almost completely withered)) | herbicidal effect on O: lambsquarters [11]: 5 (Herbicidal rate of 90% or more (almost completely withered)) | herbicidal effect rating, A: late watergrass [12]: 5 (Herbicidal rate of 90% or more (almost completely withered)) | J: blackgrass, herbicidal effect (criteria 0-5) [13]: 4 (Herbicidal rate of 70% or more and less than 90%) | L: windgrass, herbicidal effect (criteria 0-5) [14]: 5 (Herbicidal rate of 90% or more (almost completely withered)) | herbicidal effect on H: barnyard grass [15]: 5 (Herbicidal rate of 90% or more (almost completely withered)) | herbicidal effect on E: rice flat sedge [16]: 5 (Herbicidal rate of 90% or more (almost completely withered)) | herbicidal effect on N: redroot pigweed [17]: 5 (Herbicidal rate of 90% or more (almost completely withered)) | K: Italian ryegrass, herbicidal effect (criteria 0-5) [18]: 5 (Herbicidal rate of 90% or more (almost completely withered)) | F: southern crabgrass, herbicidal effect (criteria 0-5) [19]: 5 (Herbicidal rate of 90% or more (almost completely withered)) | herbicidal effect on M: velvetleaf [20]: 5 (Herbicidal rate of 90% or more (almost completely withered)) | herbicidal effect rating, B: Japanese bulrush [21]: 3 (Herbicidal rate of 40% or more and less than 70%) | I: wild oat, herbicidal effect (criteria 0-5) [22]: 3 (Herbicidal rate of 40% or more and less than 70%)

Cc1nn(C)c(=O)c(-c2c(-c3ccc(OC(F)F)cc3)sc3ccc(F)cc23)c1OC(=O)c1ccc(Cl)cc1 [2-286]
herbicidal effect on P: chickweed [1]: 0 (Herbicidal rate of 5% or less (almost no effect)) | R: persian speedwell, herbicidal effect (criteria 0-5) [2]: 5 (Herbicidal rate of 90% or more (almost completely withered)) | herbicidal effect on K: Italian ryegrass [3]: 5 (Herbicidal rate of 90% or more (almost completely withered)) | O: lambsquarters, herbicidal effect (criteria 0-5) [4]: 5 (Herbicidal rate of 90% or more (almost completely withered)) | herbicidal effect on H: barnyard grass [5]: 5 (Herbicidal rate of 90% or more (almost completely withered)) | herbicidal effect on I: wild oat [6]: 0 (Herbicidal rate of 5% or less (almost no effect)) | herbicidal effect on G: green foxtail [7]: 3 (Herbicidal rate of 40% or more and less than 70%) | N: redroot pigweed, herbicidal effect (criteria 0-5) [8]: 5 (Herbicidal rate of 90% or more (almost completely withered)) | herbicidal effect on F: southern crabgrass [9]: 0 (Herbicidal rate of 5% or less (almost no effect)) | H: barnyard grass, herbicidal effect (criteria 0-5) [10]: 5 (Herbicidal rate of 90% or more (almost completely withered)) | herbicidal effect on O: lambsquarters [11]: 3 (Herbicidal rate of 40% or more and less than 70%) | herbicidal effect rating, A: late watergrass [12]: 3 (Herbicidal rate of 40% or more and less than 70%) | J: blackgrass, herbicidal effect (criteria 0-5) [13]: 4 (Herbicidal rate of 70% or more and less than 90%) | L: windgrass, herbicidal effect (criteria 0-5) [14]: 0 (Herbicidal rate of 5% or less (almost no effect)) | herbicidal effect on H: barnyard grass [15]: 1 (Herbicidal rate of 5% or more and less than 20%) | herbicidal effect on E: rice flat sedge [16]: 4 (Herbicidal rate of 70% or more and less than 90%) | herbicidal effect on N: redroot pigweed [17]: 4 (Herbicidal rate of 70% or more and less than 90%) | K: Italian ryegrass, herbicidal effect (criteria 0-5) [18]: 5 (Herbicidal rate of 90% or more (almost completely withered)) | F: southern crabgrass, herbicidal effect (criteria 0-5) [19]: 2 (Herbicidal rate of 20% or more and less than 40%) | herbicidal effect on M: velvetleaf [20]: 0 (Herbicidal rate of 5% or less (almost no effect)) | herbicidal effect rating, B: Japanese bulrush [21]: 3 (Herbicidal rate of 40% or more and less than 70%) | I: wild oat, herbicidal effect (criteria 0-5) [22]: 1 (Herbicidal rate of 5% or more and less than 20%)

Cc1nn(C)c(=O)c(-c2c(-c3ccc(OC(F)F)cc3)sc3ccc(F)cc23)c1OC(=O)c1ccco1 [2-287]
herbicidal effect on P: chickweed [1]: 4 (Herbicidal rate of 70% or more and less than 90%) | R: persian speedwell, herbicidal effect (criteria 0-5) [2]: 5 (Herbicidal rate of 90% or more (almost completely withered)) | herbicidal effect on K: Italian ryegrass [3]: 5 (Herbicidal rate of 90% or more (almost completely withered)) | O: lambsquarters, herbicidal effect (criteria 0-5) [4]: 5 (Herbicidal rate of 90% or more (almost completely withered)) | herbicidal effect on H: barnyard grass [5]: 5 (Herbicidal rate of 90% or more (almost completely withered)) | herbicidal effect on I: wild oat [6]: 0 (Herbicidal rate of 5% or less (almost no effect)) | herbicidal effect on G: green foxtail [7]: 5 (Herbicidal rate of 90% or more (almost completely withered)) | N: redroot pigweed, herbicidal effect (criteria 0-5) [8]: 5 (Herbicidal rate of 90% or more (almost completely withered)) | herbicidal effect on F: southern crabgrass [9]: 4 (Herbicidal rate of 70% or more and less than 90%) | H: barnyard grass, herbicidal effect (criteria 0-5) [10]: 5 (Herbicidal rate of 90% or more (almost completely withered)) | herbicidal effect on O: lambsquarters [11]: 5 (Herbicidal rate of 90% or more (almost completely withered)) | herbicidal effect rating, A: late watergrass [12]: 3 (Herbicidal rate of 40% or more and less than 70%) | J: blackgrass, herbicidal effect (criteria 0-5) [13]: 5 (Herbicidal rate of 90% or more (almost completely withered)) | L: windgrass, herbicidal effect (criteria 0-5) [14]: 4 (Herbicidal rate of 70% or more and less than 90%) | herbicidal effect on H: barnyard grass [15]: 5 (Herbicidal rate of 90% or more (almost completely withered)) | herbicidal effect on E: rice flat sedge [16]: 5 (Herbicidal rate of 90% or more (almost completely withered)) | herbicidal effect on N: redroot pigweed [17]: 5 (Herbicidal rate of 90% or more (almost completely withered)) | K: Italian ryegrass, herbicidal effect (criteria 0-5) [18]: 5 (Herbicidal rate of 90% or more (almost completely withered)) | F: southern crabgrass, herbicidal effect (criteria 0-5) [19]: 5 (Herbicidal rate of 90% or more (almost completely withered)) | herbicidal effect on M: velvetleaf [20]: 5 (Herbicidal rate of 90% or more (almost completely withered)) | herbicidal effect rating, B: Japanese bulrush [21]: 3 (Herbicidal rate of 40% or more and less than 70%) | I: wild oat, herbicidal effect (criteria 0-5) [22]: 3 (Herbicidal rate of 40% or more and less than 70%)
